Data taken from patent publication US7341992B2, “Lectin-like domain of thrombomodulin and its therapeutic use” (Vlaams Interuniversitair Instituut Voor Biotechnologie VZW, priority 2001, dated 2008).

Tested on: TM^wt/wt endothelial cells
Test: Static adhesion assay: murine PMNs on endothelial cells from TM^wt/wt mice
Format: cell-based
Settings: addition of PPACK to exclude thrombin effect
Source text: Table 8: Static adhesion assay. […] This is a representative experiment performed 3 times, on 3 different clones each. For each experiment, 5 wells were used for each condition, and adherent leukocytes in 15 microscopic fields were counted.
Since TM expression is not restricted to vascular endothelial cells, but is also synthesized by other cells including neutrophils and monocytes, we considered the possibility that the increase in leukocyte efflux into the lungs might be a result of TM alterations on either the neutrophils and/or the vascular endothelium. fEND.5 cells are an established PymT transformed murine endothelial cell line that expresses full-length, functional TM on the cell surface. […] Adhesion and rolling of neutrophils to transformed endothelial cells derived from the TM^wt/wt and TM^LeD/LeD mice were consequently evaluated. […] This was determined not to be an endothelial cell clone-specific artifact, as 3 different clones of endothelial cells were evaluated with similar results. There was also a significant 3-fold increase in PMN and lymphocyte adhesion to resting TM^LeD/LeD endothelial cells as compared to TM^wt/wt endothelial cells (Table 8). […]
Neutrophils and lymphocytes were isolated from bone marrow according to the method of Lowell and Berton ^35. Each population was assessed to be over 95% pure by microscopic analysis after Wright staining. […]

In the case of `NC(N)=NCCC[C@H](NC(=O)[C@@H]1CCCN1C(=O)[C@H](N)Cc1ccccc1)C(=O)CCl` [PPACK], the “effect on the results of the adhesion assays” value is reported as “no effect”.
